This is an account of results in the OligoGym collection.

The series concerns the target IRF4. To be noted: ASO.

Where “and” joins values, the source holds several entries; their conditions need not be identical. Identical values can stand only once. After the bases stand the sugars from the 5' end (letter, count) and the backbone: PS all phosphorothioate, else s phosphorothioate and o phosphodiester by linkage. Methylation of C is not given here. e = 2'-O-(2-methoxyethyl) (MOE); k = constrained ethyl (cEt); d = 2'-deoxy (DNA)

On to “TGTGTATTACTCTTAG (sugars kkdddddddddkdkdk, PS)”, for which the target mRNA inhibition is 40% and 47% (H929, 0.04 µM); 62% and 74% (KMS11, 0.2 µM); 54% (MM.1R, 0.0625 µM); 62% (MM.1R, 0.25 µM); 81% and 71% and 72% (MM.1R, 1 µM); 91% (MM.1R, 4 µM).

As for GACAGATGACATGCTT (sugars k3 d10 k3, PS), the target mRNA inhibition (SK-MEL-28, 4 µM) amounted to 9%.

With “TGTGCTTGCCAAGCCT (sugars kdddddddddkekeke, PS)”, the target mRNA inhibition (MM.1R, 1 µM) was -3% and 16%.

Consider TTGCATCCATGTCAAC (sugars k3 d10 k3, PS), for which the target mRNA inhibition (SK-MEL-28, 4 µM) stood at 47%.

For GTTCCTGTCACCTGGC (sugars k3 d10 k3, PS), the target mRNA inhibition (SK-MEL-28, 4 µM) worked out at 49%.

For ATTATAGAGCATCACT (sugars k3 d10 k3, PS), the target mRNA inhibition (MM.1R, 1 µM) is -6%.

In the case of TACCAACGACAGCATA (sugars k3 d10 k3, PS), the target mRNA inhibition (SK-MEL-28, 4 µM) turned out to be 61%.

Consider GCACGAGGAAGCATAG (sugars k3 d10 k3, PS), for which the target mRNA inhibition (SK-MEL-28, 4 µM) was 58%.

Consider ATGAGGAAGCCGTTCC (sugars k3 d10 k3, PS), for which, under “SK-MEL-28, 4 µM”, the target mRNA inhibition was found to be 58%.

Consider CAGTGGTGGCCGCGGG (sugars k3 d10 k3, PS), for which, where the note is “SK-MEL-28, 4 µM”, the target mRNA inhibition amounted to 27%.

As for ACGCAGAGCCAGTAGG (sugars k3 d10 k3, PS), for the setting “SK-MEL-28, 4 µM”, the target mRNA inhibition turned out to be 50%.

As to “AAGCATTTTATCATCC (sugars kdddddddddkekeke, PS)”, the target mRNA inhibition (MM.1R, 1 µM) amounted to 6%.

For TCCCTCCAGCTTCGGT (sugars k3 d10 k3, PS), the target mRNA inhibition (MM.1R, 1 µM) was -21%.

Consider AGTTGTCTGGCTAGCA (sugars k3 d10 k3, PS), for which the target mRNA inhibition (SK-MEL-28, 4 µM) came out at 80%.

In the case of “GGAAGTTTACACTGGA (sugars kkdddddddddkdkdk, PS)”, the target mRNA inhibition (MM.1R, 1 µM) was found to be 24%.

In the case of GCTGTTTATTTCCTAC (sugars k3 d10 k3, PS), the target mRNA inhibition (SK-MEL-28, 4 µM) came out at 66%.

As to AACCGGTAGAGTGAGA (sugars k3 d10 k3, PS), the target mRNA inhibition (SK-MEL-28, 4 µM) was 6%.

With GACTACACCTACACAG (sugars k3 d10 k3, PS), the target mRNA inhibition (SK-MEL-28, 4 µM) turned out to be 32%.

Regarding CACTATGCCTGAACTG (sugars k3 d10 k3, PS), where the note is “SK-MEL-28, 4 µM”, the target mRNA inhibition stood at 10%.

Take AATCACTGGAGAGAAC (sugars k3 d10 k3, PS): the target mRNA inhibition (SK-MEL-28, 4 µM) is 29%.

On to ATAGGAAGCACTGGCA (sugars k3 d10 k3, PS), for which the target mRNA inhibition (SK-MEL-28, 4 µM) turned out to be 42%.

As to ACGACAGCTGCGGAGC (sugars k3 d10 k3, PS), the target mRNA inhibition (SK-MEL-28, 4 µM) was 27%.

Regarding AGCCGCCGGCACAGGC (sugars k3 d10 k3, PS), the target mRNA inhibition (SK-MEL-28, 4 µM) came out at 1%.

Consider TTCCAACAGGCGGACA (sugars k3 d10 k3, PS), for which, for the setting “SK-MEL-28, 4 µM”, the target mRNA inhibition stood at 43%.

On to CAGTTCTAAGCATTGC (sugars k3 d10 k3, PS), for which the target mRNA inhibition (SK-MEL-28, 4 µM) worked out at 33%.

Regarding CTTGAAAAGCCAATGC (sugars k3 d10 k3, PS), where the note is “SK-MEL-28, 4 µM”, the target mRNA inhibition stood at 58%.

AGGAGAGGCTGAGATA (sugars k3 d10 k3, PS): the target mRNA inhibition (SK-MEL-28, 4 µM) was determined as 21%.

On to CTGCAAACGACAAGTG (sugars k3 d10 k3, PS), for which the target mRNA inhibition (MM.1R, 1 µM) was -18%.

With ATAATGTTTCAGTGCT (sugars k3 d10 k3, PS), the target mRNA inhibition (SK-MEL-28, 4 µM) came out at 76%.

AGTGTTCCAGGAGATA (sugars k3 d10 k3, PS): the target mRNA inhibition runs as follows: (MM.1R, 0.0625 µM) 43%; (MM.1R, 0.25 µM) 59%; (MM.1R, 1 µM) 80% and 72%; (MM.1R, 4 µM) 84%.

As for CATAGAGCCAGAGCAG (sugars k3 d10 k3, PS), the target mRNA inhibition (SK-MEL-28, 4 µM) was 60%.

As for TATAGTAGGTAAGATC (sugars k3 d10 k3, PS), where the note is “SK-MEL-28, 4 µM”, the target mRNA inhibition amounted to 13%.

As for TCCTGGCAGTGCTCTC (sugars k3 d10 k3, PS), the target mRNA inhibition (SK-MEL-28, 4 µM) was 60%.

In the case of CACATCACTTGGTCAA (sugars k3 d10 k3, PS), for the setting “SK-MEL-28, 4 µM”, the target mRNA inhibition stood at 72%.

“CTATAGTGTTCCAGGA (sugars kkddddddddddkeke, PS)”: the target mRNA inhibition (MM.1R, 1 µM) came to 36%.

As for ACTAGATTGTAGGACA (sugars k3 d10 k3, PS), where the note is “SK-MEL-28, 4 µM”, the target mRNA inhibition is -9%.

For TTTACACCGTTGCTCA (sugars k3 d10 k3, PS), the target mRNA inhibition (MM.1R, 1 µM) was 3%.

Regarding CCGCAAAAGAAACGAG (sugars k3 d10 k3, PS), the target mRNA inhibition (MM.1R, 1 µM) is -7%.

In the case of TAAGAAGCACTGGCAT (sugars k3 d10 k3, PS), for the setting “SK-MEL-28, 4 µM”, the target mRNA inhibition stood at 26%.

For the sequence “GTAGTATGAGAAACGG (sugars kkdddddddddekeke, PS)”, the target mRNA inhibition (MM.1R, 1 µM) turned out to be 35%.

For “AGTATGAGAAACGGCC (sugars kkkdddddddddkeke, PS)”, the target mRNA inhibition (MM.1R, 1 µM) amounted to 16%.

Turning to CCTTAGGAACGAAGAG (sugars k3 d10 k3, PS), the target mRNA inhibition (MM.1R, 1 µM) is -6%.

Take TGCATAGTGATGAGAT (sugars k3 d10 k3, PS): the target mRNA inhibition (SK-MEL-28, 4 µM) was 37%.

Turning to CCCTACTGGGTACATG (sugars k3 d10 k3, PS), the target mRNA inhibition (SK-MEL-28, 4 µM) was found to be 37%.

With “ACTGTTACCGATGCTT (sugars kkdddddddddkekek, PS)”, the target mRNA inhibition (MM.1R, 1 µM) was 30% and 18%.

For the sequence TGGACCCACGAAGATT (sugars k3 d10 k3, PS), the target mRNA inhibition (SK-MEL-28, 4 µM) was found to be 38%.

Consider ATGTGTTCTGGTAAAT (sugars k3 d10 k3, PS), for which the target mRNA inhibition (MM.1R, 1 µM) stood at 34%.

Consider ATTAAAGAGTGGTACA (sugars k3 d10 k3, PS), for which the target mRNA inhibition (SK-MEL-28, 4 µM) was -7%.

TCTAAACCAGCATATT (sugars k3 d10 k3, PS): where the note is “SK-MEL-28, 4 µM”, the target mRNA inhibition amounted to 33%.

CGCCGGACCCCGGAGC (sugars k3 d10 k3, PS): the target mRNA inhibition (SK-MEL-28, 4 µM) came to 9%.

With AGCAGAACGAGGTAAA (sugars k3 d10 k3, PS), the target mRNA inhibition (SK-MEL-28, 4 µM) was found to be 70%.

For the sequence AACTTTCACCTGTGGG (sugars k3 d10 k3, PS), under “SK-MEL-28, 4 µM”, the target mRNA inhibition is 50%.

TGTGAAGCATCCTTTC (sugars k3 d10 k3, PS): for the setting “SK-MEL-28, 4 µM”, the target mRNA inhibition is 45%.

For the sequence ACATTGGTACGGGATT (sugars k3 d10 k3, PS), the target mRNA inhibition (MM.1R, 1 µM) was found to be 2%.

As to CAAAGCGGGTTCACAA (sugars k3 d10 k3, PS), the target mRNA inhibition (SK-MEL-28, 4 µM) came to 16%.

On to CCTTATTAGACTGACA (sugars k3 d10 k3, PS), for which the target mRNA inhibition (SK-MEL-28, 4 µM) was determined as 48%.

Take GTTTTTTGACTCAAGA (sugars k3 d10 k3, PS): the target mRNA inhibition (SK-MEL-28, 4 µM) was found to be 67%.

With CAACACGGGAATTTCC (sugars k3 d10 k3, PS), the target mRNA inhibition (SK-MEL-28, 4 µM) was determined as 55%.

“CAGTTGTAAATGAGTC (sugars kkdddddddddkekek, PS)”: the target mRNA inhibition reads like this: (H929, 0.00067 µM) 22%; (H929, 0.002 µM) 41%; (H929, 0.00667 µM) 67%; (H929, 0.02 µM) 74%; (H929, 0.04 µM) 40%; (KMS11, 0.2 µM) 83% and 93%. In addition, the target mRNA inhibition reads like this: (MM.1R, 0.074 µM) 28%; (MM.1R, 0.222 µM) 55%; (MM.1R, 0.666 µM) 78%; (MM.1R, 1 µM) 81%; (MM.1R, 2 µM) 91%.

TGTCAAACTATAATTG (sugars k3 d10 k3, PS): under “SK-MEL-28, 4 µM”, the target mRNA inhibition was found to be 15%.

On to TTCAGACAGATGCAGC (sugars k3 d10 k3, PS), for which, under “SK-MEL-28, 4 µM”, the target mRNA inhibition turned out to be 62%.

For CATCAATCATGATATT (sugars k3 d10 k3, PS), the target mRNA inhibition (SK-MEL-28, 4 µM) came to 25%.

Take “AGTATGAGAAACGGCC (sugars kkdddddddddkekek, PS)”: the target mRNA inhibition (MM.1R, 1 µM) was determined as 3%.

In the case of TACACCTACACAGGCT (sugars k3 d10 k3, PS), the target mRNA inhibition (SK-MEL-28, 4 µM) turned out to be 19%.

GGGCAACTTTAACCAT (sugars k3 d10 k3, PS): the target mRNA inhibition (SK-MEL-28, 4 µM) was determined as 8%.

Consider GGCTAGCAGAGGTTCT (sugars k3 d10 k3, PS), for which the target mRNA inhibition (SK-MEL-28, 4 µM) stood at 51%.

With ATCTGTATAGTTCTCA (sugars k3 d10 k3, PS), under “MM.1R, 1 µM”, the target mRNA inhibition was determined as 55%.

As to GAGCTCTTCCAGATCC (sugars k3 d10 k3, PS), the target mRNA inhibition (SK-MEL-28, 4 µM) stood at 5%.

Turning to TAGCATGTATGCATTC (sugars k3 d10 k3, PS), under “SK-MEL-28, 4 µM”, the target mRNA inhibition turned out to be 52%.

As to “GGAAGTTTACACTGGA (sugars kkkdddddddddkeke, PS)”, the target mRNA inhibition amounted to 22% (MM.1R, 0.074 µM); 46% (MM.1R, 0.222 µM); 74% (MM.1R, 0.666 µM); 78% (MM.1R, 1 µM); 91% (MM.1R, 2 µM).

Regarding “AGTATGAGAAACGGCC (sugars kkddddddddddkeke, PS)”, the target mRNA inhibition (MM.1R, 1 µM) came to 9%.

With CATTGGACCCACGAAG (sugars k3 d10 k3, PS), the target mRNA inhibition (SK-MEL-28, 4 µM) is 28%.

In the case of TGCTTGAATTCCTTGA (sugars k3 d10 k3, PS), the target mRNA inhibition by setting is: (MM.1R, 0.0625 µM) -6% and -14%; (MM.1R, 0.074 µM) 13%; (MM.1R, 0.222 µM) 12%; (MM.1R, 0.25 µM) 1% and -8%; (MM.1R, 0.666 µM) 23%; (MM.1R, 1 µM) 23% and 25%. For the same sequence, the target mRNA inhibition (MM.1R, 2 µM) was 39%; the target mRNA inhibition (MM.1R, 4 µM) is 53% and 68%; the target mRNA inhibition (SK-MEL-28, 4 µM) was determined as 67%.

In the case of GGGATTCCGCGCGCAG (sugars k3 d10 k3, PS), under “SK-MEL-28, 4 µM”, the target mRNA inhibition was found to be 14%.

Consider “CTCTATAGTGTTCCAG (sugars e1 k2 d9 k2 e2, PS)”, for which the target mRNA inhibition runs as follows: (MM.1R, 0.074 µM) 20%; (MM.1R, 0.222 µM) 37%; (MM.1R, 0.666 µM) 53%; (MM.1R, 1 µM) 59%; (MM.1R, 2 µM) 75%.
